Results from US20240033256A1, “INHIBITORS OF POSITIVE STRAND RNA VIRUSES” (priority 2020, published 2024).
Like-named read-outs stand apart in the source and are kept apart here.

Legend:
[1] = Vero E6 cell viability by MTS (Dengue study); assay type: cell-based; conditions: African green monkey, Vero E6 cells
Experimental: (§1) Vero E6 cells (BCRC #60476, Bioresource Collection and Research Center, Hsinchu, Taiwan) were treated with one of Compounds 1-9 at a predetermined concentration for 1 hour at 37° C. The cells were infected with Dengue virus type 1 (“DV1”, ATCC VR-1856, American Type Culture Collection, Manassas, VA, USA) at MOI=0.002 or Dengue virus type 2 (“DV2”, ATCC VR-1584, American Type Culture Collection, Manassas, VA, USA) at MOI=0.02, both for 5 days at 33° C. They were then fixed with 10% formalin and permeabilized with methanol. Subsequently, the cells were stained with anti-flavivirus E antibody (ATCC HB-112, American Type Culture Collection, Manassas, VA, USA) and anti-mouse IgG-FITC (MP Biomedicals, Irvine, CA, USA). The nuclei of the cells were counter stained with DAPI (Thermo Fisher Scientific, MA, USA). The E protein expression was measured by using a high-content image analysis system (Molecular Devices). The cell viability was determined by MTS. EC50 and CC50 were calculated by Prism software.

Zika virus = Zika virus IFA assay (E protein) in Vero E6 cells; assay type: cell-based; conditions: read-out: EC50 (Zika virus)
Experimental: Compounds 1-9 were evaluated for their inhibitory activities against Zika virus using an IFA assay, which targeted Zika virus Envelope (“E”) protein.
(§2) Vero E6 cells (BCRC #60476, Bioresource Collection and Research Center, Hsinchu, Taiwan) were treated with one of Compounds 1-9 at a predetermined concentration for 1 hour at 37° C. The cells were adsorbed with Zika virus (ATCC VR-1843, American Type Culture Collection, Manassas, VA, USA) at MOI=0.02 for 49 hours at 37° C. The cells were fixed with 10% formalin, permeabilized with methanol. The cells were stained with anti-flavivirus E antibody (ATCC HB-112, American Type Culture Collection, Manassas, VA, USA) and anti-mouse IgG-FITC (MP Biomedicals, Irvine, CA, USA). The nuclei were counter stained with DAPI (in blue) (Thermo Fisher Scientific, MA, USA). The E protein expression was measured using a high-content image analysis system (Molecular Devices). The cell viability was determined by MTS. Both EC50 and CC50 were calculated by Prism software.

Dengue virus type 2 = Dengue virus type 2 IFA assay (E protein) in Vero E6 cells; assay type: cell-based; conditions: MOI 0.02, 5 days at 33° C, read-out: DV2 EC50
Experimental: (§3) Compounds 1-9 were evaluated for their inhibitory activities against Dengue virus, another single positive-stranded RNA virus belonging to genus of flavivirus, using an IFA assay that targeted the Dengue virus Envelope (“E”) protein.
as §1

[2] = Vero E6 cell viability by MTS (Zika study); assay type: cell-based; conditions: African green monkey, Vero E6 cells
Experimental: as §2
(§4) Their cytotoxic effects were also determined by the MTS assay described above using Vero E6 cells.

Dengue virus type 1 = Dengue virus type 1 IFA assay (E protein) in Vero E6 cells; assay type: cell-based; conditions: MOI 0.002, 5 days at 33° C, read-out: DV1 EC50
Experimental: as §3, §1

Vero E6 cells [3] = test: Vero E6 cell viability by MTS (Dengue study); assay type: cell-based
Experimental: as §1

Vero E6 cells [4] = test: Vero E6 cell viability by MTS (Zika study); assay type: cell-based
Experimental: as §2, §4

[5] = HCT-8 cell viability (MTS); conditions: human, HCT-8 cells
SARS-CoV-2 [6] = test: SARS-CoV-2 cytopathic effect (CPE) by visualization in infected Vero E6 cells; assay type: cell-based; conditions: Severe acute respiratory syndrome coronavirus 2, Vero C1008, read-out: SARS-CoV-2 inhibition EC50, CPE
Experimental: Compounds 1-3 were examined for their inhibitory activity against SARS-CoV-2 in Vero E6 cells. Cytopathic effects (“CPE”) of SARS-CoV-2 infected Vero E6 cells, with treatment of compounds in 2-fold dilution at a series of 12 concentrations, were visualized. EC50 and CC50 values were calculated.

HCoV-OC43 = HCoV-OC43 IFA assay (N protein) in HCT-8 cells; assay type: cell-based
HCoV-229E = HCoV-229E cytopathic effect / end point assay by TCID50 with crystal violet in MRC5 cells; conditions: Human coronavirus 229E, MRC5, read-out: EC50 (HCoV-229E)
Experimental: An end point assay by TCID50 was performed. Crystal violet was used to stain live cells to determine the EC50 of each compound. Further, CC50 and selective index were calculated.

SARS-CoV-2 [7] = test: SARS-CoV-2 immunofluorescence assay (IFA), N protein expression in Vero E6 cells; assay type: cell-based
Experimental: Vero E6 cells derived from BCRC #60476 (Bioresource Collection and Research Center, Hsinchu, Taiwan) were treated with each compound at an indicated concentration for 1 hour at 37° C. The cells were adsorbed with SARS-CoV-2 viruses (TCDC #4, National Taiwan University, Taipei, Taiwan, ROC) at multiplicity of infection (“MOI”) of 0.01 for 1 hour at 37° C. After virus adsorption, the cells were washed with phosphate-buffered saline (“PBS”). A fresh medium containing the compound was added at an indicated concentration. The resultant mixture was incubated for 2 days. The cells were fixed with 4% paraformaldehyde and permeabilized with a 0.5% Triton™ X-100 detergent solution (Thermo Fisher Scientific, Waltham, MA). Subsequently, they were stained with an anti-SARS-CoV-2 N protein antibody and anti-human IgG-488 (in green). The nuclei of the cells were counter stained with 4′,6-diamidino-2-phenylindole (“DAPI”, Thermo Fisher Scientific, MA, USA). The N protein expression was measured using a high-content image analysis system (Molecular Devices, San Jose, CA). The cell viability was determined by Cell Counting Kit-8 (Sigma-Aldrich, St. Louis, MO) EC50 and CC50 values were calculated by Prism software. […] Both EC50 and CC50 are measured in molar units, e.g., mol/L (“M”), μmol/L (“μM”), and nmol/L (“nM”).

SARS-CoV-2 [8] = test: SARS-CoV-2 plaque assay in Vero E6 cells; assay type: cell-based; conditions: Severe acute respiratory syndrome coronavirus 2, Vero C1008
Experimental: The assay was performed in triplicate in 24-well tissue culture plates. Vero E6 cells were seeded in Dulbecco's modified Eagle's medium (“DMEM”) with 10% Fetal Bovine Serum (“FBS”, Biological Industries, Kibbutz, Israel) and antibiotics one day before infection. SARS-CoV-2 viruses were added to the cell monolayer and allowed to sit for 1 hour at 37° C. After viruses were removed, the cell monolayer was washed once with PBS before covering with media containing agarose or methylcellulose for 5-7 days. The cells were fixed with 3.7% formaldehyde overnight followed by removal of overlay media. They were then stained with crystal violet to count the plaque-forming units (“PFU”). The percentage of inhibition was calculated as [1−(VD/VC)]×100%, where VD and VC refer to the virus titer in the presence and absence of a test compound, respectively.

[9] = Vero E6 cells, MOI 0.02, 49 hours
[10] = Dengue virus, Vero C1008, 120 h
[11] = Severe acute respiratory syndrome coronavirus 2, Vero C1008, 48 h, Vero E6 cells, MOI 0.01, 2 days, run 1, read-out: SARS-CoV-2 inhibition EC50, IFA-1
[12] = Severe acute respiratory syndrome coronavirus 2, Vero C1008, 48 h, Vero E6 cells, MOI 0.01, 2 days, run 2, read-out: SARS-CoV-2 inhibition EC50, IFA-2
[13] = Severe acute respiratory syndrome coronavirus 2, Vero C1008, IFA, range over Compounds 1, 2 and 3, read-out: EC50 against SARS-CoV-2 (range given)
[14] = Zika virus, Vero C1008, 49 h, Vero E6 cells, MOI 0.02, 49 hours
[15] = Betacoronavirus 1, OC43, HCT-8 cells, MOI 0.05, means ± S.D. from three independent experiments, read-out: EC50 (HCoV-OC43)

Row | SMILES | CC50 [1] [nM] | CC50 [2] [nM] | CC50 [5] [nM] | EC50 (SARS-CoV-2 [6]) [nM] | EC50 (Dengue virus type 2; [10]) [nM] | EC50 (HCoV-229E) [nM] | EC50 (SARS-CoV-2 [7]; [11]) [nM] | EC50 (SARS-CoV-2 [7]; [12]) [nM] | EC50 (SARS-CoV-2 [7]; [13]) [nM] | EC50 (Dengue virus type 1; [10]) [nM] | EC50 (Zika virus; [14]) [nM] | EC50 (HCoV-OC43; [15]) [nM] | other results
1 | CCN1Cc2c(c3cc(OC)c(OC)cc3c3cc(OC)c(OC)cc23)C(O)C1 (single isomer, unassigned) [Compound 7] | > 5000 | > 5000 |  |  |  |  |  |  |  |  |  |  | EC50 (Zika virus; [9]): 44.4 nM; EC50 (Dengue virus type 2): 124 nM; EC50 (Dengue virus type 1): 73.1 nM
2 | CCN1Cc2c(c3cc(OC)c(OC)cc3c3cc(OC)c(OC)cc23)C(O)C1 (single isomer, unassigned) [Compound 9] |  |  |  |  |  |  |  |  |  |  |  |  | CC50 (Vero E6 cells [3]): > 5000 nM; EC50 (Zika virus; [9]): 144 nM; EC50 (Dengue virus type 2): 616 nM; CC50 (Vero E6 cells [4]): > 5000 nM; EC50 (Dengue virus type 1): 296 nM
3 | COc1cc2c3c(c4cc(OC)c(OC)cc4c2cc1OC)CN1CCC[C@H]1C3 [Compound 1, (13as)-2,3,6,7-tetramethoxy-9,11,12,13,13a,14-hexahydrophenanthro[9,10-f] indolizine] | > 5000 | > 5000 | > 10000 | 78 | 32.5 | 71.4 ± 13.2 | 64 | 76.8 | 9 to 77 | 18.4 |  |  | EC50 (Zika virus; Zika virus, Vero C1008, 49 h): 61.4 nM; EC50 (HCoV-OC43; Betacoronavirus 1, OC43, HCT-8, read-out: EC50 (HCoV-OC43)): 68 ± 2.7 nM
4 | CCN1Cc2c(c3ccc(OC)cc3c3cc(OC)c(OC)cc23)C(O)C1 (stereo not drawn) [Compound 2] | > 5000 | > 5000 | > 10000 | 2.5 | 4.7 | 6.5 ± 1 | 9.1 | 13.9 | 9 to 77 | 4.3 | 15.3 | 16.4 ± 4.7 | EC50 (SARS-CoV-2 [8]; Vero E6 cells, run 1, read-out: SARS-CoV-2 inhibition EC50, Plaque assay-1): 10.8 nM; EC50 (SARS-CoV-2 [8]; Vero E6 cells, run 2, read-out: SARS-CoV-2 inhibition EC50, Plaque assay-2): 13.8 nM; EC50 (SARS-CoV-2 [8]; infected Vero E6 cells, four measurements, read-out: EC50 against SARS-CoV-2, plaque assay, all four measurements): 11 to 14 nM
5 | CCN1Cc2c(c3ccc(OC)cc3c3cc(OC)c(OC)cc23)C(O)C1C (stereo not drawn) [Compound 3] | > 5000 | > 5000 | > 10000 | 20 | 29 | 25.4 ± 3.1 | 31.6 | 31.9 | 9 to 77 | 19.6 | 15.9 | 55.9 ± 6.2 | 
6 | COc1cc2c3c(c4cc(OC)c(OC)cc4c2cc1OC)CN1CCCCC1C3 (stereo not drawn) [Compound 4] | > 5000 | > 5000 | > 10000 |  | 8.3 |  |  |  |  | 7.6 | 13.3 | 51.7 ± 6.1 | 
7 | CCN1CCc2c(c3cc(OC)c(OC)cc3c3cc(OC)ccc23)C1 [Compound 5] | > 5000 | > 5000 | > 10000 |  | 286 |  |  |  |  | 131 | 156 |  | 
8 | COc1cc2c3c(c4cc(OC)c(OC)cc4c2cc1OC)C[N+]1([O-])CCCC1C3 (stereo not drawn) [Compound 6] | > 5000 | > 5000 | > 10000 |  | 2640 |  |  |  |  | 1640 | 1040 | 1890 ± 228 | Selectivity index (HCoV-OC43) (HCoV-OC43; CC50/EC50, HCT-8 cells): >5.3
9 | CCCN1Cc2c(c3cc(OC)c(OC)cc3c3cc(OC)c(OC)cc23)C(O)C1 (stereo not drawn) [Compound 8] | > 5000 | > 5000 |  |  | 617 |  |  |  |  | 247 | 304 |  | 
